The values that follow come from patent publication US20240287043A1, “KETOAMIDE DERIVATIVE AND APPLICATION THEREOF” (GUANGDONG RAYNOVENT BIOTECH CO., LTD., priority 2021, published 2024).

Data set [1] can be described thus: Cytotoxicity assay in MRC5 cells without viral infection (CellTiter Glo). As to conditions: human, no viral infection. The class given is cell-based. An excerpt:
The calculation formulas were as below: […]

In another data set the test system is HCoV OC43. Briefly: In vitro anti-coronavirus activity using a cytopathic model (CPE, CellTiter Glo). As to conditions: Betacoronavirus 1, OC43, MRC5, 120 h.
The nature of a further data set: in vivo. To be noted: male, C57BL/6J, mouse.
The target of the next data set is SARS-COV-2 Mpro (Severe acute respiratory syndrome coronavirus 2, UniProt P0DTD1). Briefly: In vitro inhibitory activity against Mpro protease of novel coronavirus (fluorescence substrate assay). The class given is biochemical. To be noted: 25 nM Mpro protein, 25 μM substrate.
The conditions of data set [2]: male, C57BL/6J, mouse, in vivo.

Molecules are shown by their SMILES. pEC50, pIC50: −log10 of the molar value. Read-outs that look alike come from different tables or passages of the source.

The compound `O=C(NC1CCCC1)C(=O)[C@H](C[C@@H]1CCNC1=O)NC(=O)[C@@H]1[C@H]2CCC[C@H]2CN1C(=O)[C@@H](NC(=O)C(F)(F)F)C1CCCCC1` [Compound 1] showed a CC50 at 5 days in data set [1] above 10000 nM. The compound further showed a pEC50 in the data set on HCoV OC43 of 6.59. In addition, in “in vivo” (iv, 3 mg/kg), the AUC(0-t) was determined as 7.79 µM·h, the Vd was found to be 1.38 L/kg, the clearance is 10.1 mL/min/kg and the concentration at 0.083 h worked out at 6770 nM. In “in vivo” (iv, 3 mg/kg), this compound had a concentration at 0.25 h of 5530 nM, a concentration at 0.5 h of 3930 nM, a concentration at 1 h of 1960 nM and a concentration at 2 h of 867 nM. For the same compound, in “in vivo” (iv, 3 mg/kg), the concentration at 4 h was determined as 293 nM, the concentration at 8 h stood at 89.7 nM, the concentration at 24 h came out at 6.59 nM and the half-life is 3.8 h. Further, in “in vivo” (po, 10 mg/kg), the AUC(0-t) was 5.7 µM·h, the Cmax worked out at 1290 nM, the Tmax was 2 h and the bioavailability was found to be 22%. In addition, in “in vivo” (po, 10 mg/kg), the concentration at 0.25 h was determined as 533 nM, the concentration at 0.5 h is 706 nM, the concentration at 1 h was found to be 952 nM and the concentration at 2 h worked out at 1290 nM. In “in vivo” (po, 10 mg/kg), this compound registered a concentration at 4 h of 661 nM, a concentration at 6 h of 291 nM, a concentration at 8 h of 187 nM and a concentration at 24 h of 2.69 nM. This compound gave a half-life in the data set “in vivo” (po, 10 mg/kg) of 2.63 h.

At SARS-COV-2 Mpro, `O=C(NCc1ccccc1)C(=O)[C@H](C[C@@H]1CCNC1=O)NC(=O)[C@@H]1[C@H]2CCC[C@H]2CN1C(=O)[C@@H](NC(=O)C(F)(F)F)C1CCCCC1` [Compound 2] had a pIC50 of 7.96. This compound also came in with a CC50 at 5 days in data set [1] above 10000 nM. Further, in the data set with HCoV OC43, the pEC50 was 6.43.

On SARS-COV-2 Mpro, `CC(C)(C)NC(=O)C(=O)[C@H](C[C@@H]1CCNC1=O)NC(=O)[C@@H]1[C@H]2CCC[C@H]2CN1C(=O)[C@@H](NC(=O)C(F)(F)F)C1CCCCC1` [Compound 3] had a pIC50 of 7.60. Moreover, the CC50 at 5 days in data set [1] is above 10000 nM. The compound also had a pEC50 in the data set on HCoV OC43 of 6.84. The compound also yielded an AUC(0-t) in “in vivo” (iv, 3 mg/kg) of 30.6 µM·h. Besides, in “in vivo” (po, 10 mg/kg), the AUC(0-t) stood at 33 µM·h, the Tmax was determined as 1.5 h, the bioavailability was determined as 32% and the half-life was 5.4 h. Also, in data set [2] (iv, 3 mg/kg), the Cl was 2.50 mL/min/kg, the T1/2 was determined as 6.24 h and the Vdss is 1.27 L/kg. This compound returned a Cmax in data set [2] (po, 10 mg/kg) of 4810 nM.

In the case of `CC(C)(C)NC(=O)C(=O)[C@H](C[C@@H]1CCNC1=O)NC(=O)[C@@H]1[C@H]2CCC[C@H]2CN1C(=O)[C@@H](NC(=O)C(F)(F)F)C1CCC1` [Compound 4], the pIC50 against SARS-COV-2 Mpro is 6.98. This compound displayed a CC50 at 5 days in data set [1] above 10000 nM. This compound also showed a pEC50 in the data set on HCoV OC43 of 6.08.

In turn, `CC(C)(C)NC(=O)C(=O)[C@H](C[C@@H]1CCNC1=O)NC(=O)[C@@H]1[C@H]2CCC[C@H]2CN1C(=O)[C@@H](NC(=O)C(F)(F)F)C1CCCC1` [Compound 5] showed a pIC50 against SARS-COV-2 Mpro of 7.30. The compound also displayed a CC50 at 5 days in data set [1] above 10000 nM. In the data set on HCoV OC43, the pEC50 was 6.43.

`CC1([C@H](NC(=O)C(F)(F)F)C(=O)N2C[C@@H]3CCC[C@@H]3[C@H]2C(=O)N[C@@H](C[C@@H]2CCNC2=O)C(=O)C(=O)NC2CCCC2)CCCCC1` [Compound 6] gave a pIC50 against SARS-COV-2 Mpro of 7.92.

`CC(C)(C)[C@H](NC(=O)C(F)(F)F)C(=O)N1C[C@H]2[C@@H]([C@H]1C(=O)N[C@H](C#N)CC1CCNC1=O)C2(C)C` (stereo partly shown) [PF-07321332, reference compound]: in “in vivo” (iv, 3 mg/kg), the AUC(0-t) stood at 3.33 µM·h, the Vd is 0.456 L/kg, the clearance is 30.2 mL/min/kg and the half-life is 0.71 h. In the data set “in vivo” (po, 10 mg/kg), the AUC(0-t) was found to be 3.58 µM·h, the Cmax came out at 2720 nM, the Tmax was 0.292 h and the bioavailability was 32.7%. The same compound showed a half-life in “in vivo” (po, 10 mg/kg) of 1.1 h.
